Results as given in patent US20070066572A1, “Neuroprotection by positively-charged nitroxides” (priority 2005, published 2007).

What was measured:
hSOD1-G93A mice = assay: In vivo attenuation of ALS symptoms in transgenic G93A-SOD1 mice; details: 40 mg/kg or about 1 mg/mouse/day in drinking water
Source text: Animal model: A transgenic mouse line overexpressing mutant G93A-SOD1 gene (TgN(SOD1-G93A)1Gur, herein called hSOD1-G93A, a high expression mouse line) and the mating pairs were purchased from Jackson Laboratory (Bar Harbor, Me.). Mice were housed and bred as described previously (Liu R, et al., “Enhanced oxygen radical production in a transgenic mouse model of familial amyotrophic lateral sclerosis,” Ann. Neurol. 44:763-70 (1998)) and in accordance with the University of North Dakota Animal Care and Use Committee guidelines.
At age 40-50 days, transgenic littermates (wild-type normal mice and hSOD1-G93A mice) were divided into three groups (n=10) and administered with vehicle alone (regular drinking water), Mito-Tempol (40 mg/kg or about 1 mg/mouse/day) or Tempol (40 mg/kg or about 1 mg/mouse/day), respectively. The onset of disease was defined as the day when a sharp decrease in muscle strength was detected. The initial symptoms of hind leg paralysis was considered as the disease progression as well.

[1] = test system: Bovine aortic endothelial cells (BAECs); assay: Glu/GO-induced caspase-3 activity (apoptosis) in BAECs; assay type: cell-based
Method: Cell line: Bovine aortic endothelial cells (BAECs; American Type Culture Collection) were grown to confluence in DMEM (Calbiochem; San Diego, Calif.) containing 10% fetal bovine serum (FBS; Invitrogen; Carlsbad, Calif.) insulin (10 μg/ml; Invitrogen), transferrin (5 μg/ml; Invitrogen), glutamine (4 mM; Sigma-Aldrich), penicillin (100 units/ml; Sigma-Aldrich) and streptomycin (100 μg/ml; Sigma-Aldrich) and were incubated at 37° C. in a humidified atmosphere of 5% CO2 and 95% air. The BAECs were used between passages four and twelve, as described by Balla G, et al., “Ferritin: a cytoprotective antioxidant strategem of endothelium,” J. Biol. Chem. 267:18148-18153 (1992). On the day of treatment, the medium was replaced with DMEM containing 2% FBS.
Glucose/Glucose Oxidase (Glu/GO): GO was obtained from Sigma Aldrich (Milwaukee, Wis.); 13-hydroperoxyoctadecadienoic acid (13-HpODE, a lipoxygenase-catalyzed oxidative metabolite of linolieic acid) and β-hydroxyoctadecadienoic acid (13-HODE, […]) were obtained from Cayman Chemical Co. (Ann Arbor, Mich.); 2′,7′-dichlorodihydrofluorescein diacetate (DCFH-DA) was obtained from Molecular Probes (Eugene, Oreg.); N-carbobenzoxyl-L-leucinyl-L-norleucinal (MG-132) was obtained from Biomol (Plymouth Meeting, Pa.); and clastolactacystin-α-lactone (Lac) was obtained from Sigma Aldrich.
BAECs were incubated with Glu/GO (20 μM), 13-HpODE (25 μM) or 13-HODE (25 μM) for different time periods (0, 2, 4, 8 or 16 hours).
Caspase-3 Activity: After treatment with Glu-GO and antioxidants, cells were washed twice with Dulbecco's phosphate-buffered saline (DPBS) and lysed with cell lysis buffer. Caspase-3 activity was measured with acetyl Asp-Glu-Val-Asp 7-amido-4-methylcoumarin (Ac-DEVD-AFC), as described in a kit from Sigma Aldrich. Caspase-3 hydrolyzes Ac-DEVD-AFC to release a fluorescent moiety, 7-amino-4-methylcoumarin (AMC). Briefly, treated cells were suspended in 100 μl of lysis buffer and passed through a 24-guage needle 10 times to ensure complete lysis. The resulting lysate was centrifuged at 4° C. at 10,000 rmp. […]

## CC1(C)CC(OCCCCC[P+](c2ccccc2)(c2ccccc2)c2ccccc2)CC(C)(C)N1[O].[Br-] [Mito-Tempol]
hSOD1-G93A mice; FIG. 2
  disease progression: delayed disease progression
hSOD1-G93A mice; FIG. 3
  lifespan: increased the lifespan
hSOD1-G93A mice; FIG. 4
  running activity as measured by Rotarod (motor function): promoted the running activity
[1]; BAECs pretreated at 0.5 and 1 μM, Glu/GO eight hours, FIG. 5
  Glu/GO-mediated caspase-3 activation: greatly inhibited
[1]; BAECs, Glu/GO, FIG. 5
  potency in inhibiting peroxide-induced apoptosis relative to Tempol: more potent than Tempol
[1]; Mito-Tempol prepared by the modified method
  endothelial oxidative damage and apoptosis: inhibited endothelial oxidative damage and apoptosis
